Values of other authors as cited in US11737471B2, “Products having high efficacy omega-6/omega-3 balanced polyunsaturated fatty acids” (OMEGA FOODS, LLC, priority 2011, dated 2023).

Details: by some estimates

In the case of `CC/C=C\C/C=C\C/C=C\CCCCCCCC(=O)O` [ALA, alpha-linolenic acid], the “conversion of ALA to DHA and EPA by the human body” value is given as “less than 1%”.
